Our source for the Efficacy in % and melting point values is patent US6444612B1, “Use of 5-amino-pyrazol-derivatives for combating micro-organisms” (Bayer Aktiengesellschaft, priority 1998, dated 2002).

The subject of series [1] is Sphaerotheca fuliginea. As to the kind of experiment: Sphaerotheca test (cucumber)/protective. It counts as in vivo. The following applies: protective, application rate 100 g/ha, evaluation 10 days after inoculation, 100% = no infection. How it is done: Sphaerotheca Test (Cucumber)/Protective
(§1) Solvent: 47 parts by weight of acetone
(§2) Emulsifier: 3 parts by weight of alkylaryl polyglycol ether
(§3) To produce a suitable preparation of active compound, 1 part by weight of active compound is mixed with the stated amounts of solvent and emulsifier, and the concentrate is diluted with water to the desired concentration.
To test for protective activity, young plants are sprayed with the preparation of active compound at the stated application rate. After the spray coating has dried on, the plants are inoculated with an aqueous spore suspension of Sphaerotheca fuliginea. The plants are then placed in a greenhouse at about 23° C. and a relative atmospheric humidity of about 70%.
Evalution is carried out 10 days after the inoculation. 0% means an efficacy which corresponds to that of the control, whereas an efficacy of 100% means that no infection is observed.

For series [2], the system named is Venturia inaequalis. Nature of the series: Venturia test (apple)/protective. The class given is in vivo. Particulars: protective, application rate 100 g/ha, evaluation 12 days after inoculation, 100% = no infection. How it is done:
Venturia Test (Apple)/Protective
as §1, §2, §3
To test for protective activity, young plants are sprayed with the preparation of active compound at the stated application rate. After the spray coating has dried on, the plants are inoculated with an aqueous conidia suspension of the apple pathogen Venturia inaequalis and then remain in an incubation cabin at about 20° C. and 100% relative atmospheric humidity for 1 day.
The plants are then placed in the greenhouse at about 21° C. and a relative atmospheric humidity of about 90%.
Evaluation is carried out 12 days after the inoculation. 0% means an efficacy which corresponds to that of the control, whereas an efficacy of 100% means that no infection is observed.

The subject of series [3] is Podosphaera leucotricha. As to the kind of experiment: Podosphaera test (apple)/protective. The class given is in vivo. The following applies: protective, application rate 100 g/ha, evaluation 10 days after inoculation, 100% = no infection. How it is done: Podosphaera Test (Apple)/Protective
as §1, §2, §3
To test for protective activity, young plants are sprayed with the preparation of active compound at the stated application rate. After the spray coating has dried on, the plants are inoculated with an aqueous spore suspension of the apple mildew pathogen Podosphaera leucotricha. The plants are then placed in a greenhouse at about 23° C. and a relative atmospheric humidity of about 70%.
Evaluation is carried out 10 days after the inoculation. 0% means an efficacy which corresponds to that of the control, whereas an efficacy of 100% means that no infection is observed.

The subject of series [4] is Erysiphe graminis f.sp. tritici. As to the kind of experiment: Erysiphe test (wheat)/protective. The class given is in vivo. The following applies: protective, application rate 250 g/ha, evaluation 7 days after inoculation, 100% = no infection. How it is done:
Erysiphe Test (Wheat)/Protective
(§4) Solvent: 25 parts by weight of N,N-dimethylacetamide
Emulsifier: 0.6 part by weight of alkylaryl polyglycol ether
as §3
To test for protective activity, young plants are sprayed with the preparation of active compound at the stated application rate.
After the spray coating has dried on, the plants are dusted with spores of Erysiphe graminis f.sp. tritici.
The plants are placed in a greenhouse at a temperature of about 20° C. and a relative atmospheric humidity of about 80% to promote the development of mildew pustules.
(§5) Evaluation is carried out 7 days after the inoculation. 0% means an efficacy which corresponds to that of the control, whereas an efficacy of 100% means that no infection is observed.

Series [5] relates to Pyrenophora teres. As to the kind of experiment: Pyrenophora teres test (barley)/curative. It counts as in vivo. Particulars: curative, application rate 250 g/ha, evaluation 7 days after inoculation, 100% = no infection. How it is done:
Pyrenophora Teres Test (Barley)/Curative
as §4
Emulsifier: 0.6 parts by weight of alkylaryl polyglycol ether
as §3
To test for curative activity, young plants are sprayed with a conidia suspension of Pyrenophora teres. The plants remain in an incubation cabin at 20° C. and 100% relative atmospheric humidity for 48 hours. The plants are then sprayed with the preparation of active compound at the stated application rate.
The plants are placed in a greenhouse at a temperature of about 20° C. and a relative atmospheric humidity of about 80%.
as §5

In series [1], `CCOC(=O)c1c(CC)nn(C)c1NC(=O)Cc1ccc(-c2ccc(OC(F)(F)F)cc2)cc1` [drawing 287] showed an Efficacy in % of 100%.
`CCc1nn(C)c(NC(=O)Cc2ccc(-c3ccc(OC(F)(F)F)cc3)cc2)c1Cl` [drawing 292] yielded an Efficacy in % in series [2] of 96%.
Turning to `CCOC(=O)c1c(CC)nn(C)c1NC(=O)Cc1ccc(OC)cc1` [Example 1, 4-ethoxycarbonyl-3-ethyl-5-(4-methoxyphenylacetyl)-amino-1-methylpyrazole], the melting point (in general, the temperature, or range, at which the solid turns liquid) fell in the range of 112 to 113 °C.
In series [3], `CCOC(=O)c1c(CC)nn(C)c1NC(=O)Cc1cccc(Oc2ccc(OC(F)(F)F)cc2)c1` [drawing 284] had an Efficacy in % of 92%.
The molecule `CCc1nn(C)c(NC(=O)Cc2ccc(-c3ccc(OC(F)(F)F)cc3)cc2)c1Cl` [drawing 286] yielded an Efficacy in % in series [3] of 100%.
Molecule `CCc1cc(NC(=O)Cc2ccc(-c3ccc(OC(F)(F)F)cc3)cc2)n(C)n1` showed an Efficacy in % in series [2] of 96%.
In turn, `CCc1nn(C)c(NC(=O)Cc2ccc(Br)cc2)c1Cl` [Example 5, 5-(4-bromophenylacetyl)-amino-4-chloro-3-ethyl-1-methylpyrazole] had a melting point of 167 to 168 °C.
In series [4], `CCOC(=O)c1c(CC)nn(C)c1NC(=O)Cc1cccc(Oc2ccc(Cl)cc2)c1` [drawing 282] had an Efficacy in % of 100%.
The molecule `CCOC(=O)c1c(CC)nn(C)c1NC(=O)Cc1cccc(Oc2ccc(Cl)cc2)c1` [drawing 283] gave an Efficacy in % in series [5] of 100%.
The molecule `CCc1nn(C)c(NC(=O)Cc2ccc(-c3ccc(OC(F)(F)F)cc3)cc2)c1Cl` [drawing 288] registered an Efficacy in % in series [1] of 100%.
In turn, `CCOC(=O)c1c(CC)nn(C)c1NC(=O)Cc1ccc(-c2ccc(OC(F)(F)F)cc2)cc1` [drawing 291] had an Efficacy in % in series [2] of 93%.
Molecule `CCOC(=O)c1c(CC)nn(C)c1NC(=O)Cc1ccc(-c2ccc(OC(F)(F)F)cc2)cc1` [drawing 285] gave an Efficacy in % in series [3] of 100%.
For the molecule `CCOC(=O)c1c(CC)nn(C)c1NC(=O)Cc1cccc(Oc2ccc(OC(F)(F)F)cc2)c1` [drawing 290], the Efficacy in % in series [2] came out at 90%.
